Data from patent publication US20110135742A1, “CONTROLLED RELEASE ENCAPSULATED ANTI-BACTERIAL AND ANTI-INFLAMMATORY NANOPARTICLES” (The Regents of the University of California, priority 2006, published 2011).

Experiments:
IL-12p40 = test: P. acnes stimulated IL-12p40 production by primary human monocytes; assay type: cell-based; conditions: primary human monocytes stimulated with P. acnes; dilutions 1, 10^-1, 10^-2; FIG. 5
eukaryotic cells = test: MTT assay; assay type: cell-based; conditions: FIG. 6
P. acnes [1] = test: Scanning electron microscopy of P. acnes; assay type: cell-based; conditions: FIG. 7
P. acnes [2] = test: CFU assay against P. acnes; assay type: cell-based; conditions: FIG. 4
[3] = recorded, background statement; cited from earlier work

| SMILES | inhibition of IL-12p40 production (IL-12p40) | toxicity to eukaryotic cells (eukaryotic cells) | physical changes in the bacteria, compared with control (P. acnes [1]) | killing of P. acnes, benzoyl peroxide un-encapsulated or nanoparticle encapsulated (P. acnes [2]) | success as acne medication [3] |
| --- | --- | --- | --- | --- | --- |
| O=C(OOC(=O)c1ccccc1)c1ccccc1 [benzoyl peroxide] | inhibited | not toxic | destroy the bacteria and kill P. acnes | kills bacteria | – |
| CC1=C(/C=C/C(C)=C/C=C/C(C)=C\C(=O)O)C(C)(C)CCC1 [Isotretinoin] | – | – | – | – | 80-90% |
